Experimental findings from patent US9096599B2, “Spiroindoline compounds” (Intervet Inc., priority 2011, dated 2015) are described below.

Like-named read-outs stand apart in the source and are kept apart here. Where only a bound is given, the exact number is not on record here.

The subject of this experiment is Ascaridia galli (L3) and Oesophagostumum dentatum (L3 and L4) larvae. Kind of experiment: In vitro anthelmintic larval test, minimum effective concentration by microscopic examination. The experiment is classed as cell-based. The settings on record: read-out: minimum effective concentration (MEC). Here is the method:
C: Biological Examples Efficacy Against Ascaridia galli and Oesophagostomum dentatum
Anthelmintic effects of compounds of this invention (numbers refer to compound numbers in Table I) were tested in vitro using gut-welling larval stages of two parasitic nematode species: Ascaridia galli (intestinal roundworm of chicken), larval stage 3 (“L3”); and Oesophagostumum dentatum (nodular worm of swine), larval stages 3 and 4 (respectively “L3” and “L4”). When conducting these experiments, DMSO-solutions of various concentrations of compounds of this invention were prepared and incubated in 96-well microtiter plates. The parasites were then distributed at 20 larvae per well. The anthelmintic effects were classified by microscopic examination. The microscopic examination included assessing mortality, damage, motility, progression of development, and neutral red uptake by the larvae in comparison to a DMSO-control.

Setting [1] is: activity against one or both of the nematodes (A. galli L3; O. dentatum L3, L4), 96-well plates, 20 larvae per well, vs DMSO-control.

For the molecule `Cc1ccc(/C=C/CN2CCC3(CC2)CN(C(=O)c2ccnc(C)c2)c2ccc(Sc4ccc(F)cc4)cc23)c(C)c1` [Compound 22, [1′-[(E)-3-(2,4-dimethylphenyl)allyl]-5-(4-fluorophenyl)sulfanyl-spiro[indoline-3,4′-piperidine]-1-yl]-(2-methyl-4-pyridyl)methanone], the minimal effective concentration under setting [1] is no more than 50 µM.

As to `Cc1cc(C(=O)N2CC3(CCN(C/C=C/c4ccc(Cl)cc4)CC3)c3cc(Sc4ccc(F)cc4)ccc32)cc(Cl)n1` [Compound 27, (2-chloro-6-methyl-4-pyridyl)-[1′-[(E)-3-(4-chlorophenyl)allyl]-5-(4-fluorophenyl)sulfanyl-spiro[indoline-3,4′-piperidine]-1-yl]methanone], under setting [1], the minimal effective concentration is no more than 50 µM.

Take `O=C(c1ccnc(Cl)c1)N1CC2(CCN(C/C=C/c3ccc(Cl)cc3)CC2)c2cc(Sc3ccc(F)cc3)ccc21` [Compound 26, [1′-[(E)-3-(4-chlorophenyl)allyl]-5-(4-fluorophenyl)sulfanyl-spiro[indoline-3,4′-piperidine]-1-yl]-(2-chloro-4-pyridyl)methanone]: the minimal effective concentration under setting [1] was no more than 50 µM.

On to `Cc1ccc(/C=C/CN2CCC3(CC2)CN(C(=O)c2cc(C)nc(Cl)c2)c2ccc(Sc4ccc(F)cc4)cc23)c(C)c1` [Compound 21, (2-chloro-6-methyl-4-pyridyl)-[1′-[(E)-3-(2,4-dimethylphenyl)allyl]-5-(4-fluorophenyl)sulfanyl-spiro[indoline-3,4′-piperidine]-1-yl]methanone], for which the minimal effective concentration under setting [1] is no more than 50 µM.

For `Cc1cc(C(=O)N2CC3(CCN(C/C=C/c4ccc(F)c(F)c4)CC3)c3cc(Sc4ccc(F)cc4)ccc32)cc(Cl)n1` [Compound 33, (2-chloro-6-methyl-4-pyridyl)-[1′-[(E)-3-(3,4-difluorophenyl)allyl]-5-(4-fluorophenyl)sulfanyl-spiro[indoline-3,4′-piperidine]-1-yl]methanone], the minimal effective concentration under setting [1] is no more than 50 µM.

In the case of `Cc1cc(C(=O)N2CC3(CCN(C/C=C/c4ccc(Cl)cc4Cl)CC3)c3cc(Sc4ccc(F)cc4)ccc32)ccn1` [Compound 31, [1′-[(E)-3-(2,4-dichlorophenyl)allyl]-5-(4-fluorophenyl)sulfanyl-spiro[indoline-3,4′-piperidine]-1-yl]-(2-methyl-4-pyridyl)methanone], under setting [1], the minimal effective concentration was no more than 50 µM.

For the molecule `O=C(c1ccnc(Cl)c1)N1CC2(CCN(C/C=C/c3ccc(Cl)cc3Cl)CC2)c2cc(Sc3ccc(F)cc3)ccc21` [Compound 29, (2-chloro-4-pyridyl)-[1′-[(E)-3-(2,4-dichlorophenyl)allyl]-5-(4-fluorophenyl)sulfanyl-spiro[indoline-3,4′-piperidine]-1-yl]methanone], the minimal effective concentration under setting [1] was no more than 50 µM.

Take `Cc1cc(C(=O)N2CC3(CCN(C/C=C/c4ccccc4)CC3)c3cc(Sc4ccc(F)cc4)ccc32)cc(Cl)n1` [Compound 12, (2-chloro-6-methyl-4-pyridyl)-[1′-[(E) -cinnamyl]-5-(4-fluorophenyl)sulfanyl-spiro[indoline-3,4′-piperidine]-1-yl]methanone]: the minimal effective concentration was no more than 50 µM.

Turning to `O=C(c1ccnc(Cl)c1)N1CC2(CCN(C/C=C/c3ccc(F)c(F)c3)CC2)c2cc(Sc3ccc(F)cc3)ccc21` [Compound 32, (2-chloro-4-pyridyl)-[1′-[(E)-3-(3,4-difluorophenyl)allyl]-5-(4-fluorophenyl)sulfanyl-spiro[indoline-3,4′-piperidine]-1-yl]methanone], under setting [1], the minimal effective concentration was no more than 50 µM.

For `Cc1cc(C(=O)N2CC3(CCN(C/C=C/c4ccc(C)c(C)c4)CC3)c3cc(Sc4ccc(F)cc4)ccc32)cc(Cl)n1` [Compound 15, (2-chloro-6-methyl-4-pyridyl)-[1′-[(E)-3-(3,4-dimethylphenyl)allyl]-5-(4-fluorophenyl)sulfanyl-spiro[indoline-3,4′-piperidine]-1-yl]methanone], the minimal effective concentration under setting [1] is no more than 50 µM.

In the case of `Cc1cc(C(=O)N2CC3(CCN(C/C=C/c4ccc(Cl)c(Cl)c4)CC3)c3cc(Sc4ccc(F)cc4)ccc32)ccn1` [Compound 25, [1′-[(E)-3-(3,4-dichlorophenyl)allyl]-5-(4-fluorophenyl)sulfanyl-spiro[indoline-3,4′-piperidine]-1-yl]-(2-methyl-4-pyridyl)methanone], the minimal effective concentration under setting [1] was no more than 50 µM.
